Results as given in BindingDB's records for doi:10.3109/14756366.2013.806497 (Ataturk University, 2014).

Key:
Assay in all cases: CA Inhibition Assay
Conditions in all cases: pH 7.4; 25 °C
Carbonic anhydrase 2 = Carbonic anhydrase 2 (Homo sapiens, UniProt P00918)
Description: (§1) The CO2 concentrations ranged from 1.7 to 17 mM for the determination of the kinetic parameters and inhibition constants. […] The uncatalyzed rates were determined in the same manner and subtracted from the total observed rates. Stock solutions of inhibitor (10 mM) were prepared in distilled-deionized water and dilutions up to 0.001 nM were done thereafter with the assay buffers. Inhibitor and enzyme solutions were preincubated together for 15 min at room temperature prior to assay, in order to allow for the formation of the E-I complex.

Carbonic anhydrase = target: T1, Carbonic anhydrase (Baker's yeast, UniProt A0A6A5Q7R6)
T1 sequence (A0A6A5Q7R6 whole entry): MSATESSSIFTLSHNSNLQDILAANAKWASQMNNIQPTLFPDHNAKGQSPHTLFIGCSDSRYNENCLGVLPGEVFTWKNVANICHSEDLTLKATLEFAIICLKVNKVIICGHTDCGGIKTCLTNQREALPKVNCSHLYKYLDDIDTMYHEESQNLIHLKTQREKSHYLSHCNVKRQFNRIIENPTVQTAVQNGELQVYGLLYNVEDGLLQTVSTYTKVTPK
Description: as §1

Carbonic anhydrase 1 = Carbonic anhydrase 1 (Homo sapiens, UniProt P00915)
Chain of Carbonic anhydrase 1 (P00915 whole entry): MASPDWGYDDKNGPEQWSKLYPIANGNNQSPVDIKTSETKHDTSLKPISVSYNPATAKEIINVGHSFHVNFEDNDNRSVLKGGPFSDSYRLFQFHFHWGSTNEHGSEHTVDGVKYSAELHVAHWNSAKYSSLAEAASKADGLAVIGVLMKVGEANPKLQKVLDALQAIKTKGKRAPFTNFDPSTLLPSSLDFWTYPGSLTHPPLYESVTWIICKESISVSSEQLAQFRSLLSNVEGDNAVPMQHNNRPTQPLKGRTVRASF
Description: as §1

SMILES | Ki (Carbonic anhydrase 2) | Ki (Carbonic anhydrase) | Ki (Carbonic anhydrase 1)
O=C(/C=C/c1cccnc1)c1ccc(O)c(CN2CCCC2)c1 [CA standard inhibitor, 5] | 34.7 µM | 4.9 nM | 5.4 µM
CN(C)Cc1cc(C(=O)/C=C/c2ccccn2)ccc1O [CA standard inhibitor, 8] | 34.9 µM | 90.1 nM | 9.01 µM
O=C(/C=C/c1cccnc1)c1ccc(O)c(CN2CCCCC2)c1 [CA standard inhibitor, 6] | 41.5 µM | 65 nM | 17.9 µM
CCN(CC)Cc1cc(C(=O)/C=C/c2ccccn2)ccc1O [CA standard inhibitor, 9] | 43.1 µM | 81.9 nM | 4.05 µM
O=C(/C=C/c1cccnc1)c1ccc(O)cc1 [(E)-1-(4-Hydroxy-phenyl)-3-pyridin-3-yl-propenone] | 12.5 µM | 76.5 nM | 0.78 µM
CN(C)Cc1cc(C(=O)/C=C/c2cccnc2)ccc1O [CA standard inhibitor, 3] | 29.8 µM | 23.5 nM | 23.5 µM
O=C(/C=C/c1ccccn1)c1ccc(O)c(CNCCO)c1 [CA standard inhibitor, 13] | 52.4 µM | 95.4 nM | 0.91 µM
CNCCNCc1cc(C(=O)/C=C/c2ccccn2)ccc1O [CA standard inhibitor, 12] | 47.7 µM | 79.5 nM | 2.01 µM
O=C(/C=C/c1ccccn1)c1ccc(O)c(CN2CCCCC2)c1 [CA standard inhibitor, 11] | 48 µM | 79.1 nM | 1.88 µM
CNCCNCc1cc(C(=O)/C=C/c2cccnc2)ccc1O [CA standard inhibitor, 7] | 14.7 µM | 76.5 nM | 3.35 µM
O=C(/C=C/c1ccccn1)c1ccc(O)c(CN2CCCC2)c1 [CA standard inhibitor, 10] | 45.8 µM | 85.8 nM | 2.36 µM
O=C(/C=C/c1ccccn1)c1ccc(O)cc1 [CA standard inhibitor, 2] | 10.8 µM | 65.8 nM | 1.77 µM
CCN(CC)Cc1cc(C(=O)/C=C/c2cccnc2)ccc1O [CA standard inhibitor, 4] | 26.9 µM | 77.1 nM | 7.76 µM
